Experimental data reported in BindingDB's records for doi:10.1016/j.ejmech.2021.113795 (Hong Kong Polytechnic University, 2021).

How the values were obtained:
[1] = target: ATP-dependent translocase ABCB1 (Homo sapiens, UniProt P08183); assay: Inhibition of P-glycoprotein in human LCC6MDR cells assessed as reversal fold by measuring reduction in paclitaxel by measuring paclitaxel IC50 at 1 uM after 5 days by Cell Titer-Glo luminescence assay
[2] = Inhibition of MRP1 in human 2008/MRP1 cells assessed as reversal of doxorubicin resistance by measuring doxorubicin IC50 at 1 uM after 5 days by Cell Titer-Glo luminescence assay

Chain of ATP-dependent translocase ABCB1 (P08183 whole entry): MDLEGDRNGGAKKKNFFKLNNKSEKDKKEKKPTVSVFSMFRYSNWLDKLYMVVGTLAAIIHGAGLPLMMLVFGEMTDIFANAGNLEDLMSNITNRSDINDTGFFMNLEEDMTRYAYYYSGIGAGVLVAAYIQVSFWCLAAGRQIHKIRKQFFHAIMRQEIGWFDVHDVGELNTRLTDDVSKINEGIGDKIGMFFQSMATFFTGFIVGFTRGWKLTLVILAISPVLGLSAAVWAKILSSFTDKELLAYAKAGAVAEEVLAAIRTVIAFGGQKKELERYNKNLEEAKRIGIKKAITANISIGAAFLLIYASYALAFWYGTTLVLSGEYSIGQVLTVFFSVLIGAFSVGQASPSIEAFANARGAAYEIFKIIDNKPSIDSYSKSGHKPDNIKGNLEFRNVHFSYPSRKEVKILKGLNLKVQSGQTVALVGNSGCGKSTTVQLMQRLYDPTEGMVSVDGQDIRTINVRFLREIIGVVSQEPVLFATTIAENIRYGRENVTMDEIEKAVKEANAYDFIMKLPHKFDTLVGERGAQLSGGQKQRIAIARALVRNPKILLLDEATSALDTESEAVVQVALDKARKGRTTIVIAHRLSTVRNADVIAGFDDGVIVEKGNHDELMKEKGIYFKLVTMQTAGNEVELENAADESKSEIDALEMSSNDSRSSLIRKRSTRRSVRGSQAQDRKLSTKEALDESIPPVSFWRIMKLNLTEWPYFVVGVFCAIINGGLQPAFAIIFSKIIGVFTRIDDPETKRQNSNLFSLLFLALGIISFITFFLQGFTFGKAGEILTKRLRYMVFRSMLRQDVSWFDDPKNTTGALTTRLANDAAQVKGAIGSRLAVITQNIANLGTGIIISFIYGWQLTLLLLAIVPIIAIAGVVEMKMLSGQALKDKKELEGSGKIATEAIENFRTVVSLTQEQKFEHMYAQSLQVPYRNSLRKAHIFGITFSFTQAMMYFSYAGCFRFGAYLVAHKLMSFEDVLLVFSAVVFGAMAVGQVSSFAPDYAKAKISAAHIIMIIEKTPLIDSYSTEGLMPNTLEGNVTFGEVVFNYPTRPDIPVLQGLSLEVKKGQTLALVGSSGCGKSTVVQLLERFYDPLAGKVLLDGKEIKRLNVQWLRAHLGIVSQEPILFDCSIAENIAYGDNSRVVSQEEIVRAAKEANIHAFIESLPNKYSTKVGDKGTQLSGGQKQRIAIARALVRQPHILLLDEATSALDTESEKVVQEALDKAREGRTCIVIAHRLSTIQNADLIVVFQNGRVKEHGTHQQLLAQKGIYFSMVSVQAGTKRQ

COc1cc(OC)c2c(c1)O[C@H](c1ccc(OC)c(OC)c1)[C@H](OC(=O)c1ccc(F)c(NC(=O)c3cc(OC)c(OC)c(OC)c3)c1)C2
IC50 [1]: 2.2 nM
IC50 [2]: 341 nM

COc1cc(OC)c2c(c1)O[C@H](c1ccc(OC)c(OC)c1)[C@@H](OC(=O)c1ccc(F)c(NC(=O)c3cc(OC)c(OC)c(OC)c3)c1)C2
IC50 [1]: 1.8 nM
IC50 [2]: 354 nM
